Measurements reported in patent US10813911B2, “Methods of treating and/or preventing chronic obstructive pulmonary disease” (UNIVERSITE DE BORDEAUX, priority 2015, dated 2020).

Experiments:
Type in all cases: cell-based, human
[1] = tested on: fibrocytes obtained from normal subjects; assay: plasma-induced fibrocyte migration, modified Boyden chamber assay
Experimental: (§1) Purification of nonadherent non-T (NANT) cells was performed. Briefly, peripheral blood mononuclear cells (PBMC) were separated from whole blood by Ficoll-Hypaque density gradient centrifugation. After the first centrifugation at 150 g for 15 min, the top plasma layer was harvested and kept at −80° C. for further analysis. Mononuclear cells at the interface were harvested, washed once with 1×PBS. Erythrocyte lysis was performed by adding 20 ml of hypotonic 0.2% NaCl solution during 30s, followed by adding 20 ml of 1.6% NaCl to end with an isotonic solution. Mononuclear cells were again washed with 1×PBS, resuspended in Dulbecco's modified Eagle medium (DMEM), 4.5 g/l glucose, L-glutamine, supplemented with 20% fetal bovine serum (FBS), penicillin/streptomycin and MEM non essential amino acid and incubated 1 h at 37° C. The non-adherent mononuclear cell fraction was taken and washed in cold 1×PBS 0.5% BSA, 2 mM EDTA. T-cells were further depleted with anti-CD3 monoclonal antibody (Miltenyi Biotech). At least 0.2×10^6 nonadherent non-T (NANT) cells were distributed in each FACS tube and fixed overnight with Cytofix/Cytoperm (eBioscience).
(§2) Fibrocyte migration was assessed using a modified Boyden chamber assay. The transwell inserts (pore size 8 μm) and the wells were coated for 1 h at room temperature with poly-lysine-ethylene glycol (PEG-PLL, Susos) to prevent cell adhesion. The inserts and the wells were rinsed with PBS. 0,3.10^6 nonadherent non-T (NANT) cells resuspended in 0.2 ml […] DMEM, 4.5 g/l glucose, L-glutamine, supplemented with ITS, penicillin/streptomycin and MEM non essential amino acid were added to the upper compartment of each well. When indicated, NANT cells were pretreated for 1 h at 37° by 25 μg/ml plerixafor (Sigma-Aldrich) or 10 μM SB 328437 (R&D Systems) before being added to the upper compartment. Recombinant human CXCL12 (25 ng/ml to 200 ng/ml; R&D Systems), recombinant human CCL11 (25 ng/ml to 200 ng/ml; R&D Systems) or plasma (50% dilution) extracted from blood coming from COPD V1 patient or control subject was added to the bottom compartment of each well. After about 12 h, the content of bottom compartment was removed to assess fibrocyte migration by flow cytometry using double labeling CD45-collagen I. To obtain absolute values of migratory cells, flow cytometric counts for each condition were obtained during a constant predetermined time period (1 min). The fraction of migratory fibrocytes was defined by the ratio between the number CD45+coll I+ cells counted in the bottom chamber divided by the number of CD45+coll I+ cells added in the upper compartment. These values were normalized to the fraction of migratory fibrocytes obtained in the basal condition (medium only).

[2] = tested on: fibrocytes obtained from exacerbating COPD patients; assay: as above
Experimental: as §1, §2

[3] = tested on: fibrocytes; assay: fibrocyte migration in response to recombinant chemokine (CXCL12, CCL11), modified Boyden chamber assay
Experimental: as §1
Fibrocyte migration was assessed using a modified Boyden chamber assay. The transwell inserts (pore size 8 μm) and the wells were coated for 1 h at room temperature with poly-lysine-ethylene glycol (PEG-PLL, Susos) to prevent cell adhesion. The inserts and the wells were rinsed with PBS. 0,3.10^6 nonadherent non-T (NANT) cells resuspended in 0.2 ml […] DMEM, 4.5 g/l glucose, L-glutamine, supplemented with ITS, penicillin/streptomycin and MEM non essential amino acid were added to the upper compartment of each well. […] The fraction of migratory fibrocytes was defined by the ratio between the number CD45+coll I+ cells counted in the bottom chamber divided by the number of CD45+coll I+ cells added in the upper compartment. […]

COC(=O)[C@H](Cc1ccc([N+](=O)[O-])cc1)NC(=O)c1ccc2ccccc2c1 [SB 328437, (S)-methyl-2-naphthoylamino-3-(4-nitrophenyl) propionate]
plasma-induced migration of fibrocytes ([1]; fibrocytes from control subjects, plasma of exacerbating COPD patients, cells pretreated 1 h with 10 μM SB 328437, Figure E3A (FIG. 8A)): not affected | plasma-induced migration of fibrocytes ([2]; plasma of exacerbating COPD patients, cells pretreated 1 h with 10 μM SB 328437, Figure E3A (FIG. 8A)): not affected

CXCL12 alpha: recombinant human CXCL12 (R&D Systems), chemokine ligand of CXCR4
migration of fibrocytes from exacerbating COPD patient compared to fibrocytes from control subjects ([3]; 100 ng/ml chemokine, FIG. 5C): significantly higher migration | migratory response of fibrocytes to increasing concentrations of chemokine ([3]; recombinant human chemokine 25 ng/ml to 200 ng/ml in bottom compartment, about 12 h, FIG. 5C, Figure E3C): induced a significant fibrocytes migration in a dose-dependent manner

c1cc(CN2CCCNCCNCCCNCC2)ccc1CN1CCCNCCNCCCNCC1 [Plerixafor]
plasma-induced migration of fibrocytes ([1]; fibrocytes from normal (control) subjects, plasma of exacerbating COPD patients (50% dilution), cells pretreated 1 h with 25 μg/ml plerixafor, about 12 h, FIG. 5A): no significant reduction | plasma-induced recruitment of fibrocytes ([2]; plasma of exacerbating COPD patients (50% dilution), cells pretreated 1 h with 25 μg/ml plerixafor, about 12 h, FIG. 5A): significant reduction | fibrocyte migration in response to CXCL12 in presence of antagonist ([3]; CXCL12 alpha-induced migration, cells pretreated 1 h with 25 μg/ml plerixafor, FIG. 5D): completely abolished
